# According to US4766151A, “Ethers and oxime ethers of alkylamino alcohols as medicaments and novel products, and processes for their preparation” (Laboratoires, P.O.S., priority 1982, dated 1988):
# Where a name gives a salt, the structure may show the parent alone.
# What was measured:
# [1] = target: T1, isolated trachea of a guinea pig (Cavia porcellus, UniProt Q8K4Z4); experiment: pA2 measurement of beta-blocking activity on the isolated trachea of a guinea pig; type: cell-based
# T1 construct: isolated trachea of a guinea pig; from tissue; host or cells: guinea pig isolated trachea
# Method: (§1) The PA2 is the co-logarithm of the concentration of antagonist in the presence of which it requires twice as much agonist as in its absence in order to achieve the same effect; see, on this subject: Calculation of the PAx, Technical Leaflet No. 16, J. Pharmacol. Paris 1971, 2, 3, 373-380. The PA2 was measured on the isolated auricle of a guinea pig and on the isolated trachea of a guinea pig. The product used by way of comparison is the following compound: [drawing 23]
# [2] = target: T2, isolated auricle of a guinea pig (Cavia porcellus); experiment: pA2 measurement of beta-blocking activity on the isolated auricle of a guinea pig; type: cell-based; conditions: chronotropic
# T2 construct: isolated auricle of a guinea pig; from tissue; host or cells: guinea pig isolated auricle (atrium)
# Method: as §1
# [3] = target: T3, isolated auricle of a guinea pig (Cavia porcellus, UniProt H0W3H1); experiment: as above; type: cell-based; conditions: inotropic
# T3 construct: isolated auricle of a guinea pig; from tissue; host or cells: guinea pig isolated auricle (atrium)
# Method: as §1
# [4] = target: T4, isolated trachea of a guinea pig (Cavia porcellus); experiment: pA2 measurement of beta-blocking activity on the isolated trachea of a guinea pig; type: cell-based
# T4 construct: isolated trachea of a guinea pig; from tissue; host or cells: guinea pig isolated trachea
# Method: as §1
# [5] = prior art; cited from earlier work
# T2 sequence (H0W3H1 1-470): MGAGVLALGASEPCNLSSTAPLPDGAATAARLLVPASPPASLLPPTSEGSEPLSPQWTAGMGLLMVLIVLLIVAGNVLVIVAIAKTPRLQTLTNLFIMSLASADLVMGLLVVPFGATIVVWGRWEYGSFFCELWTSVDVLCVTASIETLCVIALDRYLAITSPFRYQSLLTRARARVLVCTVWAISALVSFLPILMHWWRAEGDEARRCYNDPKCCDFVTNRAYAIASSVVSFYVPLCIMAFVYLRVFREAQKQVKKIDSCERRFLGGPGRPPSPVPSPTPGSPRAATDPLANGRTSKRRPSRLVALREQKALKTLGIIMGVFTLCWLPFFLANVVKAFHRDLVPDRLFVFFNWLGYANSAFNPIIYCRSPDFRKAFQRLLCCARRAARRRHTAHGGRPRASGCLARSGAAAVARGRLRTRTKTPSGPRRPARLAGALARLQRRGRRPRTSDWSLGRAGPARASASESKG
# T3 sequence (H0W3H1 1-470): as above
# T1 sequence (Q8K4Z4 whole entry): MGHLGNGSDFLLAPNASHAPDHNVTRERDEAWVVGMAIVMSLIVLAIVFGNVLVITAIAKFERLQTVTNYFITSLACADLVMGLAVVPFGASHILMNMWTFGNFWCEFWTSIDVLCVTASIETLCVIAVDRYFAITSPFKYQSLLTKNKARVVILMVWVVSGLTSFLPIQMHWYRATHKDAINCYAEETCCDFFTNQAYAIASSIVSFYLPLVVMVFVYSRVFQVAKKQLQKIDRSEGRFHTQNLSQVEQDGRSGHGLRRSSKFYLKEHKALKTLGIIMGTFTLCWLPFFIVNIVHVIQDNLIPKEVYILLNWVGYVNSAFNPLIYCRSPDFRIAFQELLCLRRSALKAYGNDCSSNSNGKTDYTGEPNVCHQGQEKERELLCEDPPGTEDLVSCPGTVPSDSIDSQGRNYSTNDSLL
# T4 sequence (Q8K4Z4 whole entry): as above
Structure (SMILES),Trachea pA2 [1],Kb [2] [nM],Kb [3] [nM],Kb [4] [nM],undesirable secondary effects in treatment of glaucomas [5]
"C=CC(C)(C)OCC(O)CNC(C)(C)C (stereo not drawn) [Comparison, reference compound]",4.96,,,,
CC(C)(C)NC[C@H](O)COc1nsnc1N1CCOCC1 [timolol maleate],,,,,bronchial disorders (asthma) or cardiovascular disorders (orthostatic hypotension and slowing down of the pulse rate)

# Further lines, with some results ahead:
Trachea pA2 [1],Kb [2] [nM],Kb [3] [nM],Kb [4] [nM],Structure (SMILES),undesirable secondary effects in treatment of glaucomas [5]
6.23,79.4,,,"CC(C)(C)NCC(O)COCC1CC1 (stereo not drawn) [compound 3, 1-N-tert.-Butylamino-3-cyclopropylmethoxy-propan-2-ol]",
,5.01,7.24,,"CC(C)(C)NCC(O)CON=C(C1CC1)C1CC1 (stereo not drawn) [Compound No. 2, 1-N-tert.-Butylamino-3-(dicyclopropyl-ketoneoximino)-propan-2-ol]",
,2,1,0.912,"CC(=NOCC(O)CNC(C)(C)C)C1CC1 (stereo not drawn) [Compound No. 1, 1-N-tert.-Butylamino-3-(cyclopropyl-methylketoneoximino)-propan-2-ol]",
